# From patent US20080318954A1, “Compounds” (Cyclacel Limited, priority 2004, published 2008)
# How the values were obtained:
# [1] = biological target: T1, CDK2/cyclin A (Homo sapiens, UniProt P24941); experiment: CDK/cyclin kinase assay, CDK2/cyclin A; assay type: biochemical
# T1 construct: His6 (N); made in house; host or cells: Sf9 insect cells (baculovirus)
# Method: (§1) CDK4/cyclin D1, CDK1/cyclin B, CDK2/cyclin E, CDK2/cyclin A, CDK9/cyclin T1 and CDK7/cyclin H, all with a His6 tag on the N-terminus, were expressed in Sf9 insect cells using an appropriate baculovirus construct. Sf9 culture (1.6×10^6 cells/mL) was infected (MOI of 3) for two days. The cells were harvested by low speed centrifugation and the protein was purified from the insect cell pellet by metal affinity chromatography. In short: the insect cell pellet was lysed in Buffer A (10 mM Tris-HCl pH 8.0, 150 mM NaCl, 0.02% NP-40, 5 mM β-mercaptoethanol, 20 mM NaF, 1 mM Na3VO4, and Sigma Protease Inhibitor Cocktail) by sonication. The soluble fraction was cleared by centrifugation and loaded onto Ni-NTA-Agarose (Qiagen). Non-bound protein was washed off with 300 mM NaCl, 5-15 mM imidazole in buffer A and the bound protein was eluted with buffer A supplemented with 250 mM imidazole. The purified proteins were extensively dialyzed against storage buffer (20 mM HEPES pH 7.4, 50 mM NaCl, 2 mM DTT, 1 mM EDTA, 1 mM EGTA, 0.02% NP-40, 10% v/v glycerol) and stored at −70° C.
# (§2) Compounds were investigated for their CDK2/cyclin E, CDK2/cyclin A, CDK1/cyclin B, and CDK4/cyclin D1 inhibitory activity. His6-tagged recombinant human cyclin-dependent kinases CDK1/cyclin B1, CDK2/cyclin E, CDK2/cyclin A, and CDK4 were expressed in sf9 insect cells using a baculovirus expression system. Recombinant cyclin D1 was expressed in E. coli. Proteins were purified by metal chelate affinity chromatography to greater than 90% homogeneity. Kinase assays were performed in 96-well plates using recombinant CDK/cyclins. Assays were performed in assay buffer (25 mM β-glycerophosphate, 20 mM MOPS, 5 mM EGTA, 1 mM DTT, 1 mM […], pH 7.4), into which were added 2-4 μg of active enzyme with appropriate substrates (purified histone H1 for CDK1 and CDK2, recombinant GST-retinoblastoma protein (residues 773-928) for CDK4). The reaction was initiated by addition of Mg/ATP mix (15 mM MgCl2+100 μM ATP with 30-50 kBq per well of [γ-^32P]-ATP) and mixtures incubated for 10-45 min, as required, at 30° C. Reactions were stopped on ice, followed by filtration through p81 or GF/C filterplates (for CDK4) (Whatman Polyfiltronics, Kent, UK). After washing 3 times with 75 mM aq orthophosphoric acid, plates were dried, scintillant added and incorporated radioactivity measured in a scintillation counter (TopCount, Packard Instruments, Pangbourne, Berks, UK). Compounds for kinase assays were made up as 10 mM stocks in DMSO and diluted into 10% DMSO in assay buffer. Data was analysed using curve-fitting software (GraphPad Prism version 3.00 for Windows, GraphPad Software, San Diego Calif. USA) to determine IC50 values (concentration of test compound which inhibits kinase activity by 50%).
# [2] = biological target: T2, CDK1/cyclin B1 (Homo sapiens, UniProt P06493); experiment: CDK/cyclin kinase assay, CDK1/cyclin B1; assay type: biochemical
# T2 construct: His6 (N); made in house; host or cells: Sf9 insect cells (baculovirus)
# T2 sequence (P06493 whole entry): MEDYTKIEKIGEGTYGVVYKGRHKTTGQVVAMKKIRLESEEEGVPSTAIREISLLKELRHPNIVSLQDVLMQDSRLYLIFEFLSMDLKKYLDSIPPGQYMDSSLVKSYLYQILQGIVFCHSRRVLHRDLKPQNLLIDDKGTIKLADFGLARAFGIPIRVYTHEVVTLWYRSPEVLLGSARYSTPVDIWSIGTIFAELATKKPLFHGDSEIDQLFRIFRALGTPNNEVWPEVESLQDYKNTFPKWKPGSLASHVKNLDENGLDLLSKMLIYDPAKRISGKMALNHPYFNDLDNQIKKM
# T2 sequence (P14635 whole entry partner): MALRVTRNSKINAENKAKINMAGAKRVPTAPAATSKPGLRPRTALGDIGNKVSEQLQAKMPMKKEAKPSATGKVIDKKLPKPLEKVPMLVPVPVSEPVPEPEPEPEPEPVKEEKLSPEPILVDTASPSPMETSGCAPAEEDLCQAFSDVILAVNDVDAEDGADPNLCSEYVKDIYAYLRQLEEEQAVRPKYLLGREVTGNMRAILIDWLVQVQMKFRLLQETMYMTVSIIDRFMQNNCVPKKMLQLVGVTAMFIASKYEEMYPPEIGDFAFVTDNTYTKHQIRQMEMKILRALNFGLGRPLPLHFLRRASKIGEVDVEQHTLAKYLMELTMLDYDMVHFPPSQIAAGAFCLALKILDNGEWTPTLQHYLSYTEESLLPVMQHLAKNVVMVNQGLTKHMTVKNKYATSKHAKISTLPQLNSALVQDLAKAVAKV
# Method: as §1, §2
# [3] = tested on: β-catenin-LEF/TCF transcriptional activity in HEK293 cells; experiment: β-Catenin-LEF/TCF regulated reporter gene assay; assay type: cell-based, human; settings: up to 10 μM
# Text: Furthermore, the effect of compound XIV on the β-catenin-dependent transcriptional activity, as measured in a luciferase based reporter gene assay, was studied.
# HEK293 cells were transfected with either β-catenin-LEF/TCF-sensitive or β-catenin-LEF/TCF-insensitive reporter vector (Upstate Biotechnology, Inc.) using Lipofectamine Plus reagent (GibcoBRL) according to the manufacturer's instructions. The next day, cells were trypsinized, washed into serum-free medium, counted and seeded at 40,000 cells per well in a 96-well plate. Subsequent to cell attachment, LiCl or GSK-3 inhibitor compound were added to the medium to the required concentrations. Control cells were DMSO vehicle treated. 16 h after inhibitor addition, cells were analyzed for luciferase activity using the Steady-Glo Luciferase assay system (Promega) according to the manufacturer's instructions.
# [4] = biological target: T3, MAPK2/ERK2 (Homo sapiens, UniProt P28482); experiment: Protein kinase panel selectivity screen, MAPK2/ERK2; assay type: biochemical; settings: 1 μM compound; [ATP] 50 μM
# T3 construct: Dundee University (panel)
# T3 sequence (P28482 whole entry): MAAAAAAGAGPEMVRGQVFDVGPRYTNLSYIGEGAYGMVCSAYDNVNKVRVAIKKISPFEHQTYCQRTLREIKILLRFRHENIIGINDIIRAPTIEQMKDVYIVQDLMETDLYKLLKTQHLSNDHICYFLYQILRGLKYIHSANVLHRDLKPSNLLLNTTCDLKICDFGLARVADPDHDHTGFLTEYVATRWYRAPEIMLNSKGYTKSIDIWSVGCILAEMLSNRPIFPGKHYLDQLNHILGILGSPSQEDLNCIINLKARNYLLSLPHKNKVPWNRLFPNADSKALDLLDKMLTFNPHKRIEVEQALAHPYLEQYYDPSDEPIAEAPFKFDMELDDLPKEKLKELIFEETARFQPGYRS
# Method: (§3) The names of the 29 kinases comprising the selectivity screen, as well as the ATP concentrations used in each kinase case, are given in Table 5. The kinase assays were carried out as described previously.
# (§4) Compound XIV at a concentration of 1 μM was screened in the 29-kinase panel (Dundee University) and the results are shown bellow in Table 6.
# [5] = biological target: T4, SAPK3/p38g (Homo sapiens, UniProt P53778); experiment: Protein kinase panel selectivity screen, SAPK3/p38g; assay type: biochemical; settings: 1 μM compound; [ATP] 5 μM
# T4 construct: Dundee University (panel)
# T4 sequence (P53778 whole entry): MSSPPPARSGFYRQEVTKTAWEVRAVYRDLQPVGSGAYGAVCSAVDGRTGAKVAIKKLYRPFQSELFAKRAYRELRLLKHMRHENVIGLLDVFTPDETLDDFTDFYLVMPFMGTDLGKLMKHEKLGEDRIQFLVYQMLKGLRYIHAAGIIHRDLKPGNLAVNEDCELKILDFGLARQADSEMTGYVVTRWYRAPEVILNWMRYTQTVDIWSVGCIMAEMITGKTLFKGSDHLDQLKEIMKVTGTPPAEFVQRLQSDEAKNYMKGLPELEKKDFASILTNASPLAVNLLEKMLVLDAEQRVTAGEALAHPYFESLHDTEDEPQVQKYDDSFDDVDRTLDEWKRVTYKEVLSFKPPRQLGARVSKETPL
# Method: as §3, §4
# [6] = biological target: T5, MAPKAP-K1a (Homo sapiens, UniProt Q15418); experiment: Protein kinase panel selectivity screen, MAPKAP-K1a; assay type: biochemical; settings: 1 μM compound; [ATP] 50 μM
# T5 construct: Dundee University (panel)
# Method: as §3, §4
# [7] = biological target: T6, MSK1 (Homo sapiens, UniProt O75582); experiment: Protein kinase panel selectivity screen, MSK1; assay type: biochemical; settings: 1 μM compound; [ATP] 20 μM
# T6 construct: Dundee University (panel)
# T6 sequence (O75582 whole entry, species assumed): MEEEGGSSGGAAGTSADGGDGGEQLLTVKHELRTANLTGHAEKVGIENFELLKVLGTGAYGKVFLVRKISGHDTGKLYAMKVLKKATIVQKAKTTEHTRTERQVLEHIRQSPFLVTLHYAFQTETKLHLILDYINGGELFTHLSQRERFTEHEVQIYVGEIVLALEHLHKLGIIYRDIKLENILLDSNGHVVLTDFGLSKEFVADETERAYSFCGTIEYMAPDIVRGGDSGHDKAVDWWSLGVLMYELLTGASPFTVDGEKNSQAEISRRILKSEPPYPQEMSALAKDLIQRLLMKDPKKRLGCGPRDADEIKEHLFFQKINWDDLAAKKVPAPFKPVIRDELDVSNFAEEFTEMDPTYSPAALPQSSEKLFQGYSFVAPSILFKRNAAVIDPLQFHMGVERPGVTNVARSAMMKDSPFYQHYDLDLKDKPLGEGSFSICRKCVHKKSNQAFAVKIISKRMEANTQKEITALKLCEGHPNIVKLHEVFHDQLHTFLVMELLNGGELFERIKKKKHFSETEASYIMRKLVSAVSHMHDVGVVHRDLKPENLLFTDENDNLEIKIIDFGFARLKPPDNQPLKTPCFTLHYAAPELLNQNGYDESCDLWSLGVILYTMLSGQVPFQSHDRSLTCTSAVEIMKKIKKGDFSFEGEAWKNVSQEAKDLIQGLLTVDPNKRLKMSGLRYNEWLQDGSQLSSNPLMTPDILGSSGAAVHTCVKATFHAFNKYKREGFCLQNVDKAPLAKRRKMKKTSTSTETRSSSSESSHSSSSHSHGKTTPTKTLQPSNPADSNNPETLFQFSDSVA
# Method: as §3, §4
# [8] = tested on: PKA; experiment: Protein kinase panel selectivity screen, PKA; assay type: biochemical; settings: 1 μM compound; [ATP] 5 μM
# Method: as §3, §4
# [9] = biological target: T7, PKCa (Homo sapiens, UniProt P17252); experiment: Protein kinase panel selectivity screen, PKCa; assay type: biochemical; settings: 1 μM compound; [ATP] 20 μM
# T7 construct: Dundee University (panel)
# Method: as §3, §4
# [10] = biological target: T8, PKBdelta PH (Homo sapiens, UniProt P31749, S473D); experiment: Protein kinase panel selectivity screen, PKBdelta PH; assay type: biochemical; settings: 1 μM compound; [ATP] 5 μM
# T8 construct: Dundee University (panel)
# T8 sequence (P31749 118-480 S473D limits assumed): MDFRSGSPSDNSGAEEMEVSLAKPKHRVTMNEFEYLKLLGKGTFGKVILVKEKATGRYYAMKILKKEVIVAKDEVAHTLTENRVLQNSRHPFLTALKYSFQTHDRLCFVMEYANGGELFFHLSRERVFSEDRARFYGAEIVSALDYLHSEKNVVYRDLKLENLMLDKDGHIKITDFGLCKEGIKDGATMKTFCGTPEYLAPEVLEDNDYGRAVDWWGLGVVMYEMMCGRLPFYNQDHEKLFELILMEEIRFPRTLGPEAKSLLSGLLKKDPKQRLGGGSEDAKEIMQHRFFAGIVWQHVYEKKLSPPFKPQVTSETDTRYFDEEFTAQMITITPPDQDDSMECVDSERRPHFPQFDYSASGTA
# Method: as §3, §4
# [11] = biological target: T9, SGK (Homo sapiens, UniProt O00141); experiment: Protein kinase panel selectivity screen, SGK; assay type: biochemical; settings: 1 μM compound; [ATP] 20 μM
# T9 construct: Dundee University (panel)
# T9 sequence (O00141 whole entry, species assumed): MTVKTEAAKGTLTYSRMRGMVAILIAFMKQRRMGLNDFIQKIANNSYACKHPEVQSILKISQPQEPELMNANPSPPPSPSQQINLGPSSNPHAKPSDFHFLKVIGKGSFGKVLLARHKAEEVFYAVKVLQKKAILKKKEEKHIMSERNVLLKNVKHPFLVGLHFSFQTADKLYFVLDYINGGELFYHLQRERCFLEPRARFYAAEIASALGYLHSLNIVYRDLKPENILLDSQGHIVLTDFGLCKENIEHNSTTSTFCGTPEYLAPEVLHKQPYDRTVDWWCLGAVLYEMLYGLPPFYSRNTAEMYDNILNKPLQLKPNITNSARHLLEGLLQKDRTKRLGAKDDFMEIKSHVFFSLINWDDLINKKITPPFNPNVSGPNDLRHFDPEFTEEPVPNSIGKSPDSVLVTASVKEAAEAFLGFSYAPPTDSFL
# Method: as §3, §4
# [12] = tested on: p70S6K; experiment: Protein kinase panel selectivity screen, p70S6K; assay type: biochemical; settings: 1 μM compound; [ATP] 20 μM
# Method: as §3, §4
# [13] = tested on: CK2; experiment: Protein kinase panel selectivity screen, CK2; assay type: biochemical; settings: 1 μM compound; [ATP] 5 μM
# Method: as §3, §4
# [14] = tested on: Lck; experiment: Protein kinase panel selectivity screen, Lck; assay type: biochemical; settings: 1 μM compound; [ATP] 50 μM
# Method: as §3, §4
# [15] = biological target: T10, CSK (Homo sapiens, UniProt P41240); experiment: Protein kinase panel selectivity screen, CSK; assay type: biochemical; settings: 1 μM compound; [ATP] 20 μM
# T10 construct: Dundee University (screening panel)
# T10 sequence (P41240 whole entry, species assumed): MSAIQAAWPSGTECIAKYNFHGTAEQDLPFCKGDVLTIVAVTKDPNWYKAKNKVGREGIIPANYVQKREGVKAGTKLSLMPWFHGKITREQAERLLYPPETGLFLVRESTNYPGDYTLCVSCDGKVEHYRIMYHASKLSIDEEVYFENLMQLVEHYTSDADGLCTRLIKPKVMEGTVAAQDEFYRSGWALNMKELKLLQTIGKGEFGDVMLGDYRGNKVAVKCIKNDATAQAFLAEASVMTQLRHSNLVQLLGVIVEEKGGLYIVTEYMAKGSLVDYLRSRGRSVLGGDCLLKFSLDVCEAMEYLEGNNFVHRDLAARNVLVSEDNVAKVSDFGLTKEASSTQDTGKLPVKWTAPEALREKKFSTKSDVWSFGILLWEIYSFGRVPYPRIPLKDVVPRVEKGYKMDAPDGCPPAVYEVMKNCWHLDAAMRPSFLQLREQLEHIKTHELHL
# Method: as §3, §4
# [16] = tested on: CK1; experiment: Protein kinase panel selectivity screen, CK1; assay type: biochemical; settings: 1 μM compound; [ATP] 20 μM
# Method: as §3, §4
# [17] = biological target: T11, NEK6 (Homo sapiens, UniProt Q9HC98); experiment: Protein kinase panel selectivity screen, NEK6; assay type: biochemical; settings: 1 μM compound; [ATP] 50 μM
# T11 construct: Dundee University (screening panel)
# T11 sequence (Q9HC98 whole entry, species assumed): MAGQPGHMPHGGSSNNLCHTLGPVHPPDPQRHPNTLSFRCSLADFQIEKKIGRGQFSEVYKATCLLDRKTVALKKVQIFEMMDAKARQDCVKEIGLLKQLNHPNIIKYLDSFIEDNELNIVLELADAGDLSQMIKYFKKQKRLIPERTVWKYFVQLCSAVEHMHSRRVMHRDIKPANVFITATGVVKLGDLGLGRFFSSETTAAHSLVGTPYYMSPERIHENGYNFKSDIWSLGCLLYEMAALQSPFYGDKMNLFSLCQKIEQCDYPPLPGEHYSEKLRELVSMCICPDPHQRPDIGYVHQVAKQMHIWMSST
# Method: as §3, §4
compound,measurement,setting,value
"Clc1ccc(Nc2nccc(-c3nccs3)n2)cn1 [Compound XIV, (6-Chloro-pyridin-3-yl)-(4-thiazol-2-yl-pyrimidin-2-yl)-amine]",Ki,[1],> 50 µM
same,Fold selectivity for GSK3 over CDK2/cyclin A,[1]; from Ki,">3,125 fold"
same,IC50,[1]; read-out: Kinase inhibition IC50 CDK2/A,> 50 µM
same,Fold selectivity for GSK3 over CDK1/cyclin B,[2]; from Ki,">6,250 fold"
same,Ki,[2]; read-out: Ki CDK1/cyclin B,> 100 µM
same,IC50,[2]; read-out: Kinase inhibition IC50 CDK1/B1,> 100 µM
same,β-catenin transcriptional activity (luciferase reporter),[3],No induction
same,activity at 1 µM,[4],84 ± 8%
same,activity at 1 µM,[5],88 ± 3%
same,activity at 1 µM,[6],60 ± 1%
same,activity at 1 µM,[7],90 ± 6%
same,% Activity PKA,[8],76 ± 3%
same,activity at 1 µM,[9],76%
same,activity at 1 µM,[10],98 ± 1%
same,activity at 1 µM,[11],79 ± 4%
same,% Activity p70S6K,[12],91 ± 2%
same,% Activity CK2,[13],84 ± 1%
same,% Activity Lck,[14],66 ± 5%
same,activity at 1 µM,[15],93 ± 8%
same,% Activity CK1,[16],69 ± 1%
same,activity at 1 µM,[17],87 ± 6%
